Article PMC1950704 (Respiratory Research, 2007)
“Also recorded” adds a separate entry of the source. Like-named read-outs stand apart in the source and are kept apart here.

Legend:
[1] = Stability in fresh human lung tissue in vitro, with and without esterase inhibitor dichlorvos; format: in vitro ADME; conditions: 37°C
Experimental: Incubations were performed in the presence and absence of dichlorvos (1 mg/mL). Over 24 hours, samples of 1.0 mL tissue-free supernatant were taken and immediately stored at -20°C until analysis. The incubation medium was replenished by buffer which was pre-temperated to 37°C. In case of incubations with dichlorvos the medium used for replenishment contained the esterase inhibitor.
(§1) Samples of 1.0 mL (tissue desorption/stability) or 2.0 mL (tissue adsorption) were mixed with 0.1 mL internal standard solution and extracted twice with 3 mL diethylether for 30 min, using a roller mixer, followed by centrifugation (20°C) for 5 min. The organic phase was separated and evaporated to dryness under a gentle stream of nitrogen at 25°C. The resulting residue was reconstituted in 0.2 mL mobile phase. […] Linearity was given from 10–500 ng/mL glucocorticoid, coefficients of correlation of the calibration curves were at least 0.99.
The HPLC system was a Waters HPLC (Milford, MA) consisting of a 1525 binary pump, an 717plus autosampler and 2487 dual wavelength absorbance detector set at the detection wavelength of 254 nm. Data collection and integration were accomplished using Breeze™ software version 3.2. Analysis was performed on a Symmetry C18 column (150 × 4.6 mm I.D., 5 μm particle size, Waters, MA). […] The lower limit of quantitation was 10 ng/mL for all glucocorticoids except ciclesonide (20 ng/mL).

[2] = target: T1, human lung glucocorticoid receptor (Homo sapiens, UniProt P04150); assay: Kinetic receptor binding experiments (association and dissociation kinetics) in human lung cytosol; design: we isolated human lung glucocorticoid receptors from human lung tissue; from tissue; host or cells: human lung tissue cytosol (105,000 x g supernatant); conditions: 20°C, mean and mean deviation of the mean, 3-7 experiments
T1 sequence (P04150 1-777): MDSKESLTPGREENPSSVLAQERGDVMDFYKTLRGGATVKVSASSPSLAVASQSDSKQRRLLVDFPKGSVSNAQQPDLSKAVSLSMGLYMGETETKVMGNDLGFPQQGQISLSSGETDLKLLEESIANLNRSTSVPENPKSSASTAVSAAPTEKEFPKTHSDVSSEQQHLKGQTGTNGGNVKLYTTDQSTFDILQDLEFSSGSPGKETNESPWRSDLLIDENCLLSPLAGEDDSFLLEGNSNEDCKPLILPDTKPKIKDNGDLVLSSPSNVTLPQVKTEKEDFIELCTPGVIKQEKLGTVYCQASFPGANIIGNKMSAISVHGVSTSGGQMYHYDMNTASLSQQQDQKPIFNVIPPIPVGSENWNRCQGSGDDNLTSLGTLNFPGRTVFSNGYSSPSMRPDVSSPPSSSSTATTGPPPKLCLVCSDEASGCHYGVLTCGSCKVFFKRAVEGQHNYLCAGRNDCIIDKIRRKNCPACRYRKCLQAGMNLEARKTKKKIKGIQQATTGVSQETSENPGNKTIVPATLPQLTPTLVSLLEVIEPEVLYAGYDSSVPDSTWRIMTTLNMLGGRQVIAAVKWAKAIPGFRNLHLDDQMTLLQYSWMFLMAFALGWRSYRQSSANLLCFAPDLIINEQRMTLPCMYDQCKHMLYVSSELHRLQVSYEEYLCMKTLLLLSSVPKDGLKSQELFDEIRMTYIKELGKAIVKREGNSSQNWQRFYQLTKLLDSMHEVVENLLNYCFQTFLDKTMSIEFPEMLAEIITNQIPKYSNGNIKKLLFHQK
Experimental: Human lung tissue was deep frozen immediately after resection and stored in liquid nitrogen. Frozen tissue was pulverized and homogenized in three aliquots buffer solution A with an Ultra Turrax mixer (Janke and Kunkel, Staufen, Germany) in an ice bath. […] The cytosol was stored in aliquots at -70°C.
The receptor binding experiments were performed according to the procedure described earlier [1] based on [7-9].
The assay for total binding (Bt in [mol/L]) was carried out accordingly, but the unlabelled glucocorticoid was replaced by buffer solution G. To determine the total [^3H]-glucocorticoid concentration (T), 20 μL of the mixture were used for scintillation counting. […]
The Zt-values were plotted against time t and a linear regression was performed. The slope of the straight line (kAss = k1) and the coefficient of correlation r were calculated based on a minimum of four data points. […]
The Bs,t-values were plotted semi-logarithmical against time t and a linear regression was performed. The slope of the straight line (kDiss = k-1) and the coefficient of correlation r were calculated based on a minimum of six data points.
Equilibrium dissociation constant (KD) was calculated for each glucocorticoid based on association and dissociation rate constants:

[3] = Control experiment for non-specific adsorption to glass incubation vials (buffer without tissue); format: physicochemical; conditions: 480 min at 37°C, Krebs-Ringer-HEPES buffer; for non-specific binding to glass incubation vials: no tissue
Experimental: Lung tissue was washed in Krebs-Ringer-HEPES buffer (pH 7.4) and sliced into pieces of 1 mm^3. For each binding experiment approximately 0.5 g of lung tissue was used. Adsorption of glucocorticoids (0.3 μg/mL) to human lung tissue was determined as described earlier. Briefly, lung tissue pieces were suspended under gentle shaking for 1 h at 37°C in 20 ml Krebs-Ringer-HEPES buffer containing 0.3 μg/ml of the glucocorticoid. 2.0 mL samples were taken and stored at -20°C until analysis. The volume withdrawn was replaced with fresh buffer of 37°C. Only glass lab ware was used for these experiments to avoid any non-specific binding effects of the highly lipophilic compounds to plastic material. […]
as §1
(§2) The HPLC system was a Waters HPLC (Milford, MA) consisting of a 1525 binary pump, an 717plus autosampler and 2487 dual wavelength absorbance detector set at the detection wavelength of 254 nm. Data collection and integration were accomplished using Breeze™ software version 3.2. Analysis was performed on a Symmetry C18 column (150 × 4.6 mm I.D., 5 μm particle size, Waters, MA). Typically, 20 μL of sample were injected and separated at a flow rate of 1 mL/min. Gradient elution was performed using water (containing 0.2 % (v/v) acetic acid) and ACN, starting at 60:40 (v/v) water/ACN increasing linearly to 29:71 (v/v) water/ACN by 30 min. The assay was accurate and reproducible. The lower limit of quantitation was 10 ng/mL for all glucocorticoids except ciclesonide (20 ng/mL).

[4] = Desorption of glucocorticoids from human lung tissue into human plasma; format: in vitro ADME; conditions: for concentration remaining in human lung tissue after desorption: after 60 min equilibration with human plasma at 37°C; for retention / tissue binding in human lung tissue (in words): in vitro
Experimental: Desorption of glucocorticoids to human lung tissue was determined as described earlier. Briefly, lung tissue (1.0 g) was saturated with glucocorticoids for 1 h at 37°C by shaking in 40 mL Krebs-Ringer-HEPES buffer containing 0.3 μg/mL of the respective glucocorticoid. After incubation tissue was washed with 2 mL buffer and transferred into 10.0 mL human plasma (37°C). Again, only glass lab ware was used for these experiments to exclude any non-specific binding effects of the highly lipophilic compounds to plastic material. Samples of 1.0 mL were taken at defined time points. The volume was replaced with fresh plasma at 37°C. Samples were stored at -20°C until further analysis.
as §1, §2

[5] = Binding to human nasal tissue; format: in vitro ADME; conditions: single experiment, tissue pooled from 3 donors; data not shown
[6] = Adsorption of glucocorticoids to human lung tissue; format: in vitro ADME; conditions: 37°C; for tissue binding (concentration in human lung tissue) after adsorption: 60 min incubation, 0.3 μg/mL glucocorticoid in buffer, before incubation in plasma
Experimental: Lung tissue was washed in Krebs-Ringer-HEPES buffer (pH 7.4) and sliced into pieces of 1 mm^3. For each binding experiment approximately 0.5 g of lung tissue was used. Adsorption of glucocorticoids (0.3 μg/mL) to human lung tissue was determined as described earlier. Briefly, lung tissue pieces were suspended under gentle shaking for 1 h at 37°C in 20 ml Krebs-Ringer-HEPES buffer containing 0.3 μg/ml of the glucocorticoid. 2.0 mL samples were taken and stored at -20°C until analysis. The volume withdrawn was replaced with fresh buffer of 37°C. Only glass lab ware was used for these experiments to avoid any non-specific binding effects of the highly lipophilic compounds to plastic material. For control, blank samples with glucocorticoid-containing buffer, but no tissue, were incubated under the same experimental conditions (1 h at 37°C, in Krebs-Ringer-HEPES buffer) and analyzed for non-specific adsorption of the glucocorticoids to the glass tubes.
as §1, §2

[7] = target: T1, human lung glucocorticoid receptor; conditions: from previous experiments of the authors; ref [3]; cited from earlier work
[8] = system: glucocorticoid receptor (rat receptor data); design: method as in PMID 14718604; conditions: reference dexamethasone = 100, ref [16]; cited from earlier work

concentration remaining in human lung tissue after desorption [4] | retention / tissue binding in human lung tissue (in words) [4] | tissue binding (concentration in human lung tissue) after adsorption [6] | SMILES | non-specific binding to glass incubation vials [3] | also measured
1.21 ± 0.23 ng/mg | pronounced retention | 4.18 ± 0.16 ng/mg | C[C@@H]1C[C@H]2[C@@H]3C[C@H](F)C4=CC(=O)C=C[C@]4(C)[C@@]3(F)[C@@H](O)C[C@]2(C)[C@@]1(OC(=O)c1ccco1)C(=O)SCF [FF, fluticasone furoate] | no non-specific binding; also recorded: No adsorption | binding to human nasal tissue compared with FP [5]: greater binding; time to complete adsorption to human lung tissue ([6]; in vitro, data not shown): about 20 min; stability in human lung tissue (in words) ([1]; 0.3 μg/mL, 24 hours, presence and absence of dichlorvos, HPLC of supernatant): no indication of instability or chemical modification; also recorded: non-specific esterase-catalyzed hydrolysis of FF did not occur; also recorded: no degradation or metabolism
1.55 ± 0.13 ng/mg | pronounced retention | 3.39 ± 0.06 ng/mg | CCC(=O)O[C@]1(C(=O)SCF)[C@H](C)C[C@H]2[C@@H]3C[C@H](F)C4=CC(=O)C=C[C@]4(C)[C@@]3(F)[C@@H](O)C[C@@]21C [FP, fluticasone propionate] | no non-specific binding; also recorded: No adsorption | association rate constant k1 [7]: 21.17 ± 0.56 × 10^5 (L/[mol/min]); dissociation rate constant k-1 [7]: 10.73 ± 0.65 × 10^-4 [1/min]
0.57 ± 0.15 ng/mg | Lowest tissue binding | 3.65 ± 0.15 ng/mg | C[C@@H]1C[C@H]2[C@@H]3CCC4=CC(=O)C=C[C@]4(C)[C@@]3(Cl)[C@@H](O)C[C@]2(C)[C@@]1(OC(=O)c1ccco1)C(=O)CCl [MF, mometasone furoate] | did not display non-specific binding to glass | chemical stability in buffer ([3]; degradation product 9,11-epoxy MF): chemical instability

The remaining lines, values behind:

SMILES | concentration remaining in human lung tissue after desorption [4] | retention / tissue binding in human lung tissue (in words) [4] | tissue binding (concentration in human lung tissue) after adsorption [6] | non-specific binding to glass incubation vials [3] | also measured
CCC(=O)OCC(=O)[C@@]1(OC(=O)CC)[C@@H](C)C[C@H]2[C@@H]3CCC4=CC(=O)C=C[C@]4(C)[C@@]3(Cl)[C@@H](O)C[C@@]21C [BDP, beclomethasone-17, 21-dipropionate] | – | – | – | – | concentration in the supernatant in the absence of dichlorvos (control of enzymatic integrity) ([1]; human lung tissue, absence of dichlorvos, data not shown): rapidly decreased
C[C@@H]1C[C@H]2[C@@H]3CCC4=CC(=O)C=C[C@]4(C)[C@@]3(F)[C@@H](O)C[C@]2(C)[C@@]1(O)C(=O)CO [Dexa, dexamethasone] | – | – | – | – | association rate constant k1 ([2]; [3H]-glucocorticoid): 10.53 ± 0.35 × 10^5 (L/[mol/min]); dissociation rate constant k-1 [2]: 94.67 ± 5.43 × 10^-4 [1/min]
C[C@]12C=CC(=O)C=C1CC[C@@H]1[C@@H]2[C@@H](O)C[C@@]2(C)[C@H]1C[C@H]1O[C@@H](C3CCCCC3)O[C@]12C(=O)CO [des-Cicle, desisobutyryl-ciclesonide] | – | – | – | – | RRA (relative receptor affinity) [8]: 1212
